This experiment relates to MOLM-13 cells. Briefly: MOLM-13 cell viability assay (CellTiter-Glo). Type of experiment: cell-based. The conditions noted are these: Homo sapiens, MOLM-13, 72 h, 3 days, concentration of 1 μM, read-out: Antiproliferative Activity (inhibition, MOLM-13 cell viability). In short, it runs like this:
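Luminescent ATP read-out (CellTiter-Glo, 10 min with shaking) after 3-day compound or DMSO exposure at 37° C, 5% CO2. Cells plated at 2,500/well in RPMI 1640 plus 10% FBS.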
For orientation: In ATP-based viability assays light output follows the ATP content of the culture.

Experimental findings from US11345712B2, “Protein-targeting compounds and pharmaceutical compositions thereof, and their therapeutic applications” (BioTheryX, Inc., priority 2019, dated 2022) are described below.

Each structure is given as a SMILES string. Where only a bound is given, the exact number is not on record here.

In the case of `Cc1ccc(CC(=O)NCc2cc3c(s2)CN(C2CCC(=O)NC2=O)C3=O)cc1Cl` (centres unmarked) [II-79, 2-(3-chloro-4-methylphenyl)-N-((5-(2,6-dioxopiperidin-3-yl)-4-oxo-5,6-dihydro-4H-thieno[2,3-c]pyrrol-2-yl)methyl)acetamide], the cytotoxicity at 1 µM is less than 25%.

As for `CN(C)CCOc1ccc(CC(=O)NCc2scc3c2CN(C2CCC(=O)NC2=O)C3=O)cc1` (centres unmarked) [II-80, 2-(4-(2-(dimethylamino)ethoxy)phenyl)-N-((5-(2,6-dioxopiperidin-3-yl)-4-oxo-5,6-dihydro-4H-thieno[3,4-c]pyrrol-1-yl)methyl)acetamide], the cytotoxicity at 1 µM was less than 25%. On to `Cc1ccc(NC(=O)NCc2cc3c(s2)C(=O)N(C2CCC(=O)N(COC(=O)[C@H](N)C(C)C)C2=O)C3)cc1N(C)C` (stereo partly drawn) [II-81, (3-(2-((3-(3-(dimethylamino)-4-methylphenyl)ureido)methyl)-6-oxo-4,6-dihydro-5H-thieno[2,3-c]pyrrol-5-yl)-2,6-dioxopiperidin-1-yl)methyl D-valinate], for which the cytotoxicity at 1 µM was greater than 80%. Then `Cc1ccc(NC(=O)NCc2cc3c(s2)C(=O)N(C2CCC(=O)N(COC(=O)[C@H](N)C(C)C)C2=O)C3)cc1Cl` (stereo partly drawn) [II-82, (3-(2-((3-(3-chloro-4-methylphenyl)ureido)methyl)-6-oxo-4,6-dihydro-5H-thieno[2,3-c]pyrrol-5-yl)-2,6-dioxopiperidin-1-yl)methyl D-valinate], with greater than 80%; and `O=C(Cc1ccc(N2CCOCC2)cc1)NCc1scc2c1CN(C1CCC(=O)NC1=O)C2=O` (centres unmarked) [II-83, N-((5-(2,6-dioxopiperidin-3-yl)-4-oxo-5,6-dihydro-4H-thieno[3,4-c]pyrrol-1-yl)methyl)-2-(4-morpholinophenyl)acetamide], with less than 25%; and `CC(C)(C)c1ccc(CCCC(=O)NCc2scc3c2CN(C2CCC(=O)NC2=O)C3=O)cc1` (centres unmarked) [II-84, 4-(4-(tert-butyl)phenyl)-N-((5-(2,6-dioxopiperidin-3-yl)-4-oxo-5,6-dihydro-4H-thieno[3,4-c]pyrrol-1-yl)methyl)butanamide], with less than 25%. As for `CN(C)c1ccc(CCCC(=O)NCc2scc3c2CN(C2CCC(=O)NC2=O)C3=O)cc1` (centres unmarked) [II-85, 4-(4-(dimethylamino)phenyl)-N-((5-(2,6-dioxopiperidin-3-yl)-4-oxo-5,6-dihydro-4H-thieno[3,4-c]pyrrol-1-yl)methyl)butanamide], the cytotoxicity at 1 µM is less than 25%.

Take `CC(CCc1ccc(C(C)(C)C)cc1)C(=O)NCc1scc2c1CN(C1CCC(=O)NC1=O)C2=O` (centres unmarked) [II-86, 4-(4-(tert-butyl)phenyl)-N-((5-(2,6-dioxopiperidin-3-yl)-4-oxo-5,6-dihydro-4H-thieno[3,4-c]pyrrol-1-yl)methyl)-2-methylbutanamide]: the cytotoxicity at 1 µM was less than 25%.

For `CCC(C(=O)NCc1scc2c1CN(C1CCC(=O)NC1=O)C2=O)c1ccc(C)c(Cl)c1` (centres unmarked) [II-87, 2-(3-chloro-4-methylphenyl)-N-((5-(2,6-dioxopiperidin-3-yl)-4-oxo-5,6-dihydro-4H-thieno[3,4-c]pyrrol-1-yl)methyl)butanamide], the cytotoxicity at 1 µM is less than 25%. Consider `Cc1ccc(C(N)C(=O)NCc2scc3c2CN(C2CCC(=O)NC2=O)C3=O)cc1` (centres unmarked) [II-88, 2-amino-N-((5-(2,6-dioxopiperidin-3-yl)-4-oxo-5,6-dihydro-4H-thieno[3,4-c]pyrrol-1-yl)methyl)-2-(p-tolyl)acetamide], for which the cytotoxicity at 1 µM is less than 25%. In the case of `NC(C(=O)NCc1scc2c1CN(C1CCC(=O)NC1=O)C2=O)c1cccc(Cl)c1` (centres unmarked) [II-89, 2-amino-2-(3-chlorophenyl)-N-((5-(2,6-dioxopiperidin-3-yl)-4-oxo-5,6-dihydro-4H-thieno[3,4-c]pyrrol-1-yl)methyl)acetamide], the cytotoxicity at 1 µM was less than 25%. The same measure for `Cc1ccc(NC(=O)NCc2cc3c(s2)C(=O)N([C@H]2CCC(=O)NC2=O)C3)cc1Cl` [II-90, (S)-1-(3-chloro-4-methylphenyl)-3-((5-(2,6-dioxopiperidin-3-yl)-6-oxo-5,6-dihydro-4H-thieno[2,3-c]pyrrol-2-yl)methyl)urea]: greater than 80%. Regarding `Cc1ccc(NC(=O)NCc2cc3c(s2)C(=O)N([C@@H]2CCC(=O)NC2=O)C3)cc1Cl` [II-91, (R)-1-(3-chloro-4-methylphenyl)-3-((5-(2,6-dioxopiperidin-3-yl)-6-oxo-5,6-dihydro-4H-thieno[2,3-c]pyrrol-2-yl)methyl)urea], the cytotoxicity at 1 µM was greater than 80%.

On to `O=C(Cc1ccc(N2CCCC2)cc1)NCc1scc2c1CN(C1CCC(=O)NC1=O)C2=O` (centres unmarked) [II-93, N-((5-(2,6-dioxopiperidin-3-yl)-4-oxo-5,6-dihydro-4H-thieno[3,4-c]pyrrol-1-yl)methyl)-2-(4-(pyrrolidin-1-yl)phenyl)acetamide], for which the cytotoxicity at 1 µM was less than 25%.

For `CC(C)C(C(=O)NCc1scc2c1CN(C1CCC(=O)NC1=O)C2=O)c1ccc(C(C)(C)C)cc1` (centres unmarked) [II-94, 2-(4-(tert-butyl)phenyl)-N-((5-(2,6-dioxopiperidin-3-yl)-4-oxo-5,6-dihydro-4H-thieno[3,4-c]pyrrol-1-yl)methyl)-3-methylbutanamide], the cytotoxicity at 1 µM was less than 25%.

For the molecule `Cc1ccc(C(C(=O)NCc2scc3c2CN(C2CCC(=O)NC2=O)C3=O)C(C)C)cc1Cl` (centres unmarked) [II-95, 2-(3-chloro-4-methylphenyl)-N-((5-(2,6-dioxopiperidin-3-yl)-4-oxo-5,6-dihydro-4H-thieno[3,4-c]pyrrol-1-yl)methyl)-3-methylbutanamide], the cytotoxicity at 1 µM was 25 to 50%.

As to `CCc1ccc(NC(=O)NCc2cc3c(s2)C(=O)N(C2CCC(=O)NC2=O)C3)cc1N(C)C` (centres unmarked) [II-96, 1-(3-(dimethylamino)-4-ethylphenyl)-3-((5-(2,6-dioxopiperidin-3-yl)-6-oxo-5,6-dihydro-4H-thieno[2,3-c]pyrrol-2-yl)methyl)urea], the cytotoxicity at 1 µM is greater than 80%. As for `CCN(CC)c1cc(NC(=O)NCc2cc3c(s2)C(=O)N(C2CCC(=O)NC2=O)C3)ccc1F` (centres unmarked) [II-97, 1-(3-(diethylamino)-4-fluorophenyl)-3-((5-(2,6-dioxopiperidin-3-yl)-6-oxo-5,6-dihydro-4H-thieno[2,3-c]pyrrol-2-yl)methyl)urea], the cytotoxicity at 1 µM is greater than 80%. The same measure for `Cc1ccc(NC(=O)NCc2cc3c(s2)C(=O)N(C2CCC(=O)NC2=O)C3)cc1N1CCCC1` (centres unmarked) [II-98, 1-((5-(2,6-dioxopiperidin-3-yl)-6-oxo-5,6-dihydro-4H-thieno[2,3-c]pyrrol-2-yl)methyl)-3-(4-methyl-3-(pyrrolidin-1-yl)phenyl)urea]: greater than 80%; for `O=C1CCC(N2Cc3cc(CNC(=O)Nc4cccc(N5CCCC5)c4)sc3C2=O)C(=O)N1` (centres unmarked) [II-99, 1-((5-(2,6-dioxopiperidin-3-yl)-6-oxo-5,6-dihydro-4H-thieno[2,3-c]pyrrol-2-yl)methyl)-3-(3-(pyrrolidin-1-yl)phenyl)urea]: greater than 80%; for `CCN(C)c1cc(NC(=O)NCc2cc3c(s2)C(=O)N(C2CCC(=O)NC2=O)C3)ccc1C` (centres unmarked) [II-100, 1-((5-(2,6-dioxopiperidin-3-yl)-6-oxo-5,6-dihydro-4H-thieno[2,3-c]pyrrol-2-yl)methyl)-3-(3-(ethyl(methyl)amino)-4-methylphenyl)urea]: greater than 80%. As for `Cc1ccc(CCC(C)(C)C(=O)NCc2scc3c2CN([C@H]2CCC(=O)NC2=O)C3=O)cc1Cl` [II-104, (S)-4-(3-chloro-4-methylphenyl)-N-((5-(2,6-dioxopiperidin-3-yl)-4-oxo-5,6-dihydro-4H-thieno[3,4-c]pyrrol-1-yl)methyl)-2,2-dimethylbutanamide], the cytotoxicity at 1 µM was less than 25%. Then `Cc1ccc(NC(=O)NCc2cc3c(s2)C(=O)N(C2CCC(=O)N(COP(=O)(OC(C)(C)C)OC(C)(C)C)C2=O)C3)cc1N(C)C` (centres unmarked) [II-105, di-tert-butyl ((3-(2-((3-(3-(dimethylamino)-4-methylphenyl)ureido)-methyl)-6-oxo-4,6-dihydro-5H-thieno[2,3-c]pyrrol-5-yl)-2,6-dioxopiperidin-1-yl)methyl) phosphate], with less than 25%; and `CC(C)c1ccc(C(C(=O)NCc2scc3c2CN(C2CCC(=O)NC2=O)C3=O)C(C)C)cc1` (centres unmarked) [II-106, N-((5-(2,6-dioxopiperidin-3-yl)-4-oxo-5,6-dihydro-4H-thieno[3,4-c]pyrrol-1-yl)methyl)-2-(4-isopropylphenyl)-3-methylbutanamide], with less than 25%; and `CN(C)C(C(=O)NCc1scc2c1CN(C1CCC(=O)NC1=O)C2=O)c1ccccc1F` (centres unmarked) [II-108, 2-(dimethylamino)-N-((5-(2,6-dioxopiperidin-3-yl)-4-oxo-5,6-dihydro-4H-thieno[3,4-c]pyrrol-1-yl)methyl)-2-(2-fluorophenyl)acetamide], with less than 25%.

Take `CCCOc1ccc(C(N)C(=O)NCc2scc3c2CN(C2CCC(=O)NC2=O)C3=O)cc1` (centres unmarked) [II-112, 2-amino-N-((5-(2,6-dioxopiperidin-3-yl)-4-oxo-5,6-dihydro-4H-thieno[3,4-c]pyrrol-1-yl)methyl)-2-(4-propoxyphenyl)acetamide]: the cytotoxicity at 1 µM was less than 25%. Turning to `NC(C(=O)NCc1scc2c1CN(C1CCC(=O)NC1=O)C2=O)c1ccc(O)cc1` (centres unmarked) [II-113, 2-amino-N-((5-(2,6-dioxopiperidin-3-yl)-4-oxo-5,6-dihydro-4H-thieno[3,4-c]pyrrol-1-yl)methyl)-2-(4-hydroxyphenyl)acetamide], the cytotoxicity at 1 µM was less than 25%. With `Cc1ccc(NC(=O)NCc2cc3c(s2)C(=O)N(C2CCC(=O)NC2=O)C3=O)cc1N(C)C` (centres unmarked) [II-114, 1-(3-(dimethylamino)-4-methylphenyl)-3-((5-(2,6-dioxopiperidin-3-yl)-4,6-dioxo-5,6-dihydro-4H-thieno[2,3-c]pyrrol-2-yl)methyl)urea], the cytotoxicity at 1 µM was 25 to 50%. Take `Cc1cc(CCCC(=O)NCc2scc3c2CN(C2CCC(=O)NC2=O)C3=O)ccc1N(C)C` (centres unmarked) [II-115, 4-(4-(dimethylamino)-3-methylphenyl)-N-((5-(2,6-dioxopiperidin-3-yl)-4-oxo-5,6-dihydro-4H-thieno[3,4-c]pyrrol-1-yl)methyl)butanamide]: the cytotoxicity at 1 µM is less than 25%.
